Data reported in ChEMBL document CHEMBL1136152, “Synthesis and antioxidant efficiency of a new amphiphilic spin-trap derived from PBN and lipoic acid” (Bioorg Med Chem Lett, 2003).

Tests used:
Type in all cases: functional
[1] = In vitro half-hemolysis time at the concentration of 500 uM
[2] = In vitro half-hemolysis time at the concentration of 50 uM
[3] = In vitro half-hemolysis time at the concentration of 100 uM
[4] = In vitro half-hemolysis time at the concentration of 200 uM
[5] = In vitro half-hemolysis time at the concentration of 100 uM with LAMPBN to LGT molar ratio = 1.33/0.67
[6] = In vitro half-hemolysis time at the concentration of 100 uM with LAMPBN to LGT molar ratio = 0.67/1.33
[7] = In vitro half-hemolysis time at the concentration of 50 uM with LAMPBN to LGT molar ratio = 1/1
[8] = In vitro half-hemolysis time at the concentration of 500 uM with LAMPBN to LGT molar ratio = 1/1
[9] = In vitro half-hemolysis time at the concentration of 500 uM with LAMPBN to LGT molar ratio = 0.67/1.33
[10] = In vitro half-hemolysis time at the concentration of 500 uM with LAMPBN to LGT molar ratio = 1.33/0.67
[11] = In vitro half-hemolysis time at the concentration of 200 uM with LAMPBN to LGT molar ratio = 1.33/0.67
[12] = In vitro half-hemolysis time at the concentration of 50 uM with LAMPBN to LGT molar ratio = 0.67/1.33
[13] = In vitro half-hemolysis time at the concentration of 200 uM with LAMPBN to LGT molar ratio = 1/1
[14] = In vitro half-hemolysis time at the concentration of 50 uM with LAMPBN to LGT molar ratio = 1.33/0.67
[15] = In vitro half-hemolysis time at the concentration of 100 uM with LAMPBN to LGT molar ratio = 1/1
[16] = In vitro half-hemolysis time at the concentration of 200 uM with LAMPBN to LGT molar ratio = 0.67/1.33

Compound	HT50 [1] [%]	HT50 [2] [%]	HT50 [3] [%]	HT50 [4] [%]	HT50 [5] [%]	HT50 [6] [%]	HT50 [7] [%]	HT50 [8] [%]	HT50 [9] [%]	HT50 [10] [%]	HT50 [11] [%]	HT50 [12] [%]	HT50 [13] [%]	HT50 [14] [%]	HT50 [15] [%]	HT50 [16] [%]
CC(C)(COC(=O)NCCCNC(=O)CCCCC1CCSS1)/[N+]([O-])=C/c1ccc(CNC(=O)[C@H](O)[C@@H](O)[C@H](O[C@@H]2O[C@@H](CO)[C@H](O)[C@H](O)[C@@H]2O)[C@H](O)CO)cc1 (stereo partly specified)	167	49	82.9	135	–	–	–	–	–	–	–	–	–	–	–	–
CC(C)(C)/[N+]([O-])=C/c1ccc(CNC(=O)[C@H](O)[C@@H](O)C(O[C@@H]2O[C@@H](CO)[C@H](O)[C@H](O)[C@@H]2O)[C@H](O)CO)cc1.O=C(CCCCC1CCSS1)NCC(=O)NC(CO)(CO)CO (stereo partly specified)	–	–	–	–	47.4	60.8	44.6	86.5	88.6	86.3	49.8	56.6	53.7	41.5	51.6	62
